Measurements reported in PMC5918173, “Characterization of Transglutaminase 2 activity inhibitors in monocytes in vitro and their effect in a mouse model for multiple sclerosis” (PLoS ONE, 2018).
Values belong to the compound of their own block, whether it stands above or below them.

Assays:
[1] = system: inflammatory cells in spinal cord of EAE mice; experiment: Immunohistochemistry of cell infiltrates (CD45, CD68, CD3) in spinal cord of EAE mice; format: in vivo, mouse; parameters: key to CD45 (average) / CD68 (average): -: no positive cells; +: few positive cells; ++: intermediate amounts of positive cells; +++: high amounts of cells/ cellular clusters; details: for CD3 range / CD45 (average) / CD45 range / CD68 (average) / CD68 range: spinal cord of EAE mice, semi-quantitative, 3 sections per animal; for relative amount of inflammatory cells (CD45, CD68, CD3) in spinal cord: visual inspection or semi-quantification, versus vehicle
Protocol: Immunohistochemical staining was performed on cervical, thoracic and lumbar spinal cord sections from EAE mice treated with vehicle, BJJF078 or ERW1041E. The sections were brought back to room temperature and fixed with acetone for 10 min.
For single immunohistochemical stainings (CD3, CD45, CD68), endogenous peroxidase activity was blocked for 15 min with 0.3% hydrogen peroxide and 0.1% sodium azide in TBS. […] The sections were incubated with primary antibodies (Table 1) at 4°C overnight. After subsequent 2 h incubation with appropriate biotinylated IgGs (1/400, Jackson), the procedure was continued with a 1 h incubation with HRP-labelled avidin-biotin complex (ABC complex 1:400, Vector ABC elite kit, Vector laboratories) and the protocol was followed as described for the in situ TG activity staining above. Semi-quantitative analysis of cellular infiltrates per cell type was performed by unbiased manual evaluation of stained lesion areas per spinal cord section.

EAE C57BL/6 mice = experiment: MOG35-55 induced EAE in C57BL/6 mice, treatment with TG2 inhibitors; format: in vivo, mouse; details: for loss of body weight compared to vehicle / severity of motor symptoms compared to vehicle: 25 mg/kg i.p. twice daily from onset of EAE symptoms
From the text: All animal experiments were approved by the animal ethical committee of the VU University Medical Center and carried out within the animal facility of the Vrije Universiteit Amsterdam (protocol number ANW14-02). C57BL/6 (C57BL/6JOlaHsd) mice were purchased from Harlan (The Netherlands) at an age of 10 weeks and acclimatized to the new environment with water and food access ad libitum for 2 weeks before EAE induction. Humane endpoints were taken into account to prevent unnecessary suffering of the animals.
Active EAE was induced with the myelin oligodendrocyte glycoprotein peptide amino acids 35-55 (MOG35-55) from a EAE induction kit (Hooke laboratories), according to the provided protocol. In short, mice were injected subcutaneously in the upper and lower back with 100 μl of an emulsion of MOG35-55 in complete Freund’s adjuvant (CFA, containing heat inactivated Mycobacterium tuberculosis) each. At 3 hours and 26 hours after the subcutaneous injection of the emulsion, mice received an intraperitoneal injection of 150 ng pertussis toxin dissolved in PBS (volume: 0.1 ml). Disease symptoms and bodyweight were assessed daily starting from day 7 after immunization according to the following scale: 0 no disease, 0.5: partial tail weakness, 1: tail paralysis, 2: hind limb weakness, 3: partial hind limb paralysis, 4: complete hind limb paralysis, 5: moribund, dead.
The mice were injected twice daily with BJJF078 (n = 11) or ERW1041 (n = 12), starting from the onset of EAE symptoms until the end of the experiment (day 21/day 28 after immunization). The EAE animals were injected intraperitoneally with an inhibitor dose of 25 mg/kg bodyweight (i.e. ~100 μl) containing 20% DMSO, while the corresponding control groups (n = 12 and n = 10) were injected with PBS in 20% DMSO.

[2] = molecular target: T1, recombinant human TG2 (hTG2) (Homo sapiens, UniProt P21980); experiment: Inhibition of recombinant Transglutaminase activity (fluorescent substrate), human TG2; format: biochemical; details: recombinant human TG2, Fig 2A
T1 construct: purchased Zedira
T1 sequence (P21980 1-687): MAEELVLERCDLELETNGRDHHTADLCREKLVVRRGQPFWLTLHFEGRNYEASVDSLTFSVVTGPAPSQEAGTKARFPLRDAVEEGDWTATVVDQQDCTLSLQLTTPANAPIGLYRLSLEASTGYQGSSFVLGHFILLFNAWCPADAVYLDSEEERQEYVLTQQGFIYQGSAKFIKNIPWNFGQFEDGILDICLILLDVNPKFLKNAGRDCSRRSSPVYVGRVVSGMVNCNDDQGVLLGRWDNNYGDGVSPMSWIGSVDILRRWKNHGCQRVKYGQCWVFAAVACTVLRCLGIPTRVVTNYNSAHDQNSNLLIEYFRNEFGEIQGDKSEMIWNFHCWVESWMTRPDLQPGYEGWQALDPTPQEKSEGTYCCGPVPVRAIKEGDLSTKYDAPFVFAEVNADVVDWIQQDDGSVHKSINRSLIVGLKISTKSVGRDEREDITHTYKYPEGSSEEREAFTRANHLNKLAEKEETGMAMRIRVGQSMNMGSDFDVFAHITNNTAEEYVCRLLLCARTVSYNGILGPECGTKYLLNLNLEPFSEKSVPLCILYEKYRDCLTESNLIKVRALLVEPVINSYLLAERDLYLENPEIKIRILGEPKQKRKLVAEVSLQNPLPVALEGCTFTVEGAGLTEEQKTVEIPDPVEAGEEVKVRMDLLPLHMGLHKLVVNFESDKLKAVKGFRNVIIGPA
Protocol: The potency and specificity of TG2 inhibitors was assessed with various recombinant TGs, as previously described. The reaction buffer (50 mM Tris, 100 mM NaCl, 10 mM CaCl2, 5 mM H-Gly-OMe*HCl (glycinemethylestherhydrochloride, Sigma), 5 mM hexadimethinbromide (Sigma), 9.1 mM DTT, pH 7.5) was heated to 37°C in a 96 well plate. Then 50 μM of the TG substrate Abz-NE(CAD-DNP)EQVSPLTLLK-OH (Zedira) was added. 1 μg/ml recombinant TG (human TG1, human (hTG2) / mouse TG2 (mTG2) or human Factor XIII (FXIII); Zedira) were added. The two lyophilized TG2 inhibitors (see Fig 1 for chemical structure) BJJF078 (3,4-Dimethoxy-N-(5-[4-(acryloylamino)piperidine-1-sulfonyl]-naphthalen-1-yl)-benzamide, kindly provided by Dr S. El Alaoui, Covalab, France) and ERW1041E (2-[(3-Bromo-4,5-dihydro-isoxazol-5-ylmethyl)-carbamoyl]-pyrrolidine-1—carboxylic acid quinolin-3-ylmethyl ester, kindly provided by Prof C. Khosla, Stanford University, USA) were dissolved in DMSO (stock solution: 54 mM) and stored at -80°C. These stocks were further diluted and various concentrations of the TG2 inhibitors (0.3 nM to 100 μM), were added to the wells (final DMSO concentration per well: 0.06%). The relative increase in fluorescence emission, correlating with enzymatic activity, was measured over 4 h with a fluorimeter (Excitation: 320nm, emission: 405 nm; Fluostar, GMB).

- IC50 [2]: 1600 nM
SMILES: O=C(NCC1CC(Br)=NO1)C1CCCN1C(=O)OCc1cnc2ccccc2c1 (stereo not shown) [ERW1041E, 2-[(3-Bromo-4,5-dihydro-isoxazol-5-ylmethyl)-carbamoyl]-pyrrolidine-1—carboxylic acid quinolin-3-ylmethyl ester]
- CD3 range [1]: - to +
- CD45 (average) [1]: ++
- CD45 range [1]: + to +++
- CD68 (average) [1]: ++
- CD68 range [1]: - to +++
- relative amount of inflammatory cells (CD45, CD68, CD3) in spinal cord [1]: not affected
- loss of body weight compared to vehicle (EAE C57BL/6 mice): not affected
- severity of motor symptoms compared to vehicle (EAE C57BL/6 mice): modest but significant reduction
- average maximal disease score (EAE C57BL/6 mice; 25 mg/kg i.p. twice daily from onset, scale 0-5, vehicle 3.9): 3.4 score

- IC50 [2]: 41 nM
SMILES: C=CC(=O)NC1CCN(S(=O)(=O)c2cccc3c(NC(=O)c4ccc(OC)c(OC)c4)cccc23)CC1 [BJJF078, 3,4-Dimethoxy-N-(5-[4-(acryloylamino)piperidine-1-sulfonyl]-naphthalen-1-yl)-benzamide]
- CD3 range [1]: - to +
- CD45 (average) [1]: ++
- CD45 range [1]: + to +++
- CD68 (average) [1]: ++
- CD68 range [1]: - to +++
- relative amount of inflammatory cells (CD45, CD68, CD3) in spinal cord [1]: not affected
- loss of body weight compared to vehicle (EAE C57BL/6 mice): no differences
- severity of motor symptoms compared to vehicle (EAE C57BL/6 mice): no differences
